These results are taken from US6844443B2, “Benzimidazole derivatives, their production and use” (Takeda Pharmaceutical Company, Ltd., priority 1990, dated 2005).

The target of one assay is T1, A II receptor (Bos taurus, UniProt P25104).
T1 construct: An A II receptor membrane fraction was prepared from bovine adrenal cortex; from tissue; host or cells: bovine adrenal cortex membrane fraction
T1 sequence (P25104 1-359): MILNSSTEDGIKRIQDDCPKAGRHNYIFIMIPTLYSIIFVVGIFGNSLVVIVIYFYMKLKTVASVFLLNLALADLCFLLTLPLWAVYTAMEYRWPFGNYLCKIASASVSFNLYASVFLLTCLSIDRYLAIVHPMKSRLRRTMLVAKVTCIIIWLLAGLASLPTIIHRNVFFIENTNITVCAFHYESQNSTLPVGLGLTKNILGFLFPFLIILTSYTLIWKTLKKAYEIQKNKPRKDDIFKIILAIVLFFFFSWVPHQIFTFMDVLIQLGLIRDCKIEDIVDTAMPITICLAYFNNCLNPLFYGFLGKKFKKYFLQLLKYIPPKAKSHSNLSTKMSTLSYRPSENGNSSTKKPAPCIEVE
Description: Inhibition of binding of angiotensin II to angiotensin receptor (radioreceptor assay). The settings on record: for inhibition at 1 µM / inhibition at 0.1 µM: 1 h; for inhibition at 1 µM / Radioreceptor Assay 1 × 10^−6M / Radioreceptor Assay 1 × 10^−7M: inhibition of 125I-A II binding, bovine adrenal cortex membrane fraction; for inhibition at 1 µM / Radioreceptor Assay 1 × 10^−6M: compound 1 × 10^−6M; for inhibition at 0.1 µM: read-out: Radioreceptor Assay 1 × 10^−7M; for Radioreceptor Assay 1 × 10^−7M: compound 1 × 10^−7M. Details: species or system bovine; Radioreceptor Assay 1 × 10^−7M / Radioreceptor Assay 1 × 10^−6M: unit not given here. The method, then:
An experiment of inhibition on the binding of angiotensin II (A II) to A II receptor was conducted by modifying the method of Douglas et al. [Endocrinology, 102, 685-696 (1978)]. An A II receptor membrane fraction was prepared from bovine adrenal cortex.
The compound of the present invention (10 ^−6M or 10^−7M) and ^125I-angiotensin II (^125I-A II) (1.85 kBq/50 μl ) were added to the receptor membrane fraction, and the mixture was incubated at room temperature for one hour. The receptor-bound and free ^125I-A II were separated through a filter (Whatman GF/B filter), and the radioactivity of ^125I-A II bound to the receptor was measured.

Assay [1] relates to A II-induced pressor action. The experiment in a line: Inhibitory effect on pressor action of A II after oral administration. The format is in vivo, Jcl: SD rats. The conditions noted are these: for inhibition in vivo at 3 mg/kg: Rattus norvegicus, po, read-out: Pressor Response to A II (p.o.) 3 mg/kg; for Pressor Response to A II (p.o.) 3 mg/kg: percent inhibition of pressor action of i.v. A II (100 ng/kg), 3 mg/kg p.o., rats. How it is done: Jcl: SD rats (9 week old, male) were employed. On the previous day of the experiment, these animals were applied with cannulation into the femoral artery and vein under anesthesia with pentobarbital Na. The animals were fasted but allowed to access freely to drinking water until the experiment was started. Just on the day of conducting the experiment, the artery cannula was connected with a blood-pressure transducer, and the average blood pressure was recorded by means of polygraph. Before administration of the drug, the pressor action due to intravenous administration of A II (100 ng/kg) as the control was measured. The drugs were orally administered, then, at each point of the measurement, A II was administered intravenously, and the pressor action was similarly measured. By comparing the pressor action before and after administration of the drug, the percent inhibition by the drug on A II-induced pressor action was evaluated.

With `CCOC(=O)c1cccc2nc(OCC)n(Cc3ccc(-c4ccccc4-c4nnn[nH]4)cc3)c12` [Example 28], at A II receptor, the inhibition at 1 µM worked out at 82% and the inhibition at 0.1 µM amounted to 46%. Further, the inhibition in vivo at 3 mg/kg in assay [1] was at least 70%.
Taken in the same sequence, the figures for `CCOc1nc2cccc(C(=O)O)c2n1Cc1ccc(-c2ccccc2-c2nnn[nH]2)cc1` [Example 29] were 91%, 61% and at least 70%.
On to `CCCOc1nc2cccc(C(=O)OCC)c2n1Cc1ccc(-c2ccccc2-c2nnn[nH]2)cc1` [Example 30], for which, on A II receptor, the inhibition at 1 µM worked out at 48% and the inhibition at 0.1 µM turned out to be 16%. In addition, the inhibition in vivo at 3 mg/kg in assay [1] is at least 70%.
The like results for `CCCOc1nc2cccc(C(=O)O)c2n1Cc1ccc(-c2ccccc2-c2nnn[nH]2)cc1` [Example 31] were, in that order, 79%, 40% and at least 70%.
On to `CCOC(=O)c1cccc2nc(SC)n(Cc3ccc(-c4ccccc4-c4nnn[nH]4)cc3)c12` [Example 33], for which, at A II receptor, the inhibition at 1 µM was found to be 26% and the inhibition at 0.1 µM was 2%. In assay [1], the inhibition in vivo at 3 mg/kg fell in the range of 30 to 50%.
The like results for `CCOC(=O)c1cccc2nc(SCC)n(Cc3ccc(-c4ccccc4-c4nnn[nH]4)cc3)c12` [Example 34] were, in that order, 54%, 17% and at least 70%.
On to `CCCSc1nc2cccc(C(=O)OCC)c2n1Cc1ccc(-c2ccccc2-c2nnn[nH]2)cc1` [Example 35], for which, on A II receptor, the inhibition at 1 µM was determined as 32% and the inhibition at 0.1 µM came to 7%.
For the compound `CSc1nc2cccc(C(=O)O)c2n1Cc1ccc(-c2ccccc2-c2nnn[nH]2)cc1` [Example 36], on A II receptor, the inhibition at 1 µM was determined as 82% and the inhibition at 0.1 µM turned out to be 51%. Moreover, the inhibition in vivo at 3 mg/kg in assay [1] is at least 70%.
Turning to `CCSc1nc2cccc(C(=O)O)c2n1Cc1ccc(-c2ccccc2-c2nnn[nH]2)cc1` [Example 37], on A II receptor, the inhibition at 1 µM was 80% and the inhibition at 0.1 µM is 41%. The inhibition in vivo at 3 mg/kg in assay [1] is at least 70%.
Taken in the same sequence, the figures for `CCCSc1nc2cccc(C(=O)O)c2n1Cc1ccc(-c2ccccc2-c2nnn[nH]2)cc1` [Example 38] were 50%, 6% and at least 70%.
Taken in the same sequence, the figures for `CCOc1nc2cccc(C(=O)OC)c2n1Cc1ccc(-c2ccccc2-c2nnn[nH]2)cc1` [Example 39] were 89%, 58% and at least 70%.
`CCCNc1nc2cccc(C(=O)OCC)c2n1Cc1ccc(-c2ccccc2-c2nnn[nH]2)cc1` [Example 41]: at A II receptor, the inhibition at 1 µM amounted to 57% and the inhibition at 0.1 µM amounted to 45%.
Consider `CCOc1nc2cccc(C(=O)OCOC(=O)C(C)(C)C)c2n1Cc1ccc(-c2ccccc2-c2nnn[nH]2)cc1` [Example 43], for which, on A II receptor, the “Radioreceptor Assay 1 × 10^−6M” value is listed as 94 and the “Radioreceptor Assay 1 × 10^−7M” value was found to be 74. Moreover, in assay [1], the “Pressor Response to A II (p.o.) 3 mg/kg” value is “+++ (+++ ≧ 70%)”.
Taken in the same sequence, the figures for `CCOc1nc2cccc(C(=O)OC(C)OC(=O)OC3CCCCC3)c2n1Cc1ccc(-c2ccccc2-c2nnn[nH]2)cc1` (stereo not drawn) [Example 44] were 77, 32 and “+++ (+++ ≧ 70%)”.
Take `COC(=O)c1cccc2nc(OC)n(Cc3ccc(-c4ccccc4-c4nnn[nH]4)cc3)c12` [Example 45]: on A II receptor, the inhibition at 1 µM was 67% and the inhibition at 0.1 µM amounted to 17%. In assay [1], the inhibition in vivo at 3 mg/kg is at least 70%.
The like results for `COc1nc2cccc(C(=O)O)c2n1Cc1ccc(-c2ccccc2-c2nnn[nH]2)cc1` [Example 46] were, in that order, 88%, 66% and at least 70%.
Regarding `CCNc1nc2cccc(C(=O)O)c2n1Cc1ccc(-c2ccccc2-c2nnn[nH]2)cc1` [Example 47], at A II receptor, the “Radioreceptor Assay 1 × 10^−6M” value is recorded as 96 and the “Radioreceptor Assay 1 × 10^−7M” value amounted to 84. For the same compound, the “Pressor Response to A II (p.o.) 3 mg/kg” value in assay [1] is on record as “+++ (+++ ≧ 70%)”.
As for `CCCNc1nc2cccc(C(=O)O)c2n1Cc1ccc(-c2ccccc2-c2nnn[nH]2)cc1` [Example 48], on A II receptor, the inhibition at 1 µM is 92% and the inhibition at 0.1 µM was found to be 67%. Further, the inhibition in vivo at 3 mg/kg in assay [1] lay within 50 to 70%.
With `CCOc1nc2cccc(C(=O)OCc3oc(=O)oc3C)c2n1Cc1ccc(-c2ccccc2-c2nnn[nH]2)cc1` [Example 49], on A II receptor, the inhibition at 1 µM is 91% and the inhibition at 0.1 µM turned out to be 66%. In assay [1], the inhibition in vivo at 3 mg/kg is at least 70%.
With `CCOc1nc2cccc(C(=O)OCOC(C)=O)c2n1Cc1ccc(-c2ccccc2-c2nnn[nH]2)cc1` [Example 50], at A II receptor, the inhibition at 1 µM came out at 92% and the inhibition at 0.1 µM is 63%. The inhibition in vivo at 3 mg/kg in assay [1] was at least 70%.
Taken in the same sequence, the figures for `CCOc1nc2cccc(C(=O)OCOC(=O)CC)c2n1Cc1ccc(-c2ccccc2-c2nnn[nH]2)cc1` [Example 51] were 84%, 44% and at least 70%.
For `CCCC(=O)OCOC(=O)c1cccc2nc(OCC)n(Cc3ccc(-c4ccccc4-c4nnn[nH]4)cc3)c12` [Example 52], on A II receptor, the inhibition at 1 µM came to 84% and the inhibition at 0.1 µM worked out at 48%. Also, the inhibition in vivo at 3 mg/kg in assay [1] was at least 70%.
Taken in the same sequence, the figures for `CCOc1nc2cccc(C(=O)OCOC(=O)C(C)C)c2n1Cc1ccc(-c2ccccc2-c2nnn[nH]2)cc1` [Example 53] were 85%, 55% and at least 70%.
`CCOC(=O)OC(C)OC(=O)c1cccc2nc(OCC)n(Cc3ccc(-c4ccccc4-c4nnn[nH]4)cc3)c12` (stereo not drawn) [Example 54]: on A II receptor, the inhibition at 1 µM turned out to be 81% and the inhibition at 0.1 µM came out at 42%. Further, the inhibition in vivo at 3 mg/kg in assay [1] is at least 70%.
As for `CCOc1nc2cccc(C(=O)OC(C)OC(C)=O)c2n1Cc1ccc(-c2ccccc2-c2nnn[nH]2)cc1` (stereo not drawn) [Example 55], on A II receptor, the inhibition at 1 µM was 91% and the inhibition at 0.1 µM came to 63%. The inhibition in vivo at 3 mg/kg in assay [1] was at least 70%.
On to `CNc1nc2cccc(C(=O)O)c2n1Cc1ccc(-c2ccccc2-c2nnn[nH]2)cc1` [Example 57], for which, on A II receptor, the inhibition at 1 µM is 79% and the inhibition at 0.1 µM stood at 41%.
For the compound `CCOc1nc2cccc(C(=O)OCOC(=O)C3CCCCC3)c2n1Cc1ccc(-c2ccccc2-c2nnn[nH]2)cc1` [Example 58], on A II receptor, the inhibition at 1 µM amounted to 84% and the inhibition at 0.1 µM came out at 55%. In addition, the inhibition in vivo at 3 mg/kg in assay [1] was at least 70%.
Regarding `CCOc1nc2cccc(C(=O)OCOC(=O)/C=C/c3ccccc3)c2n1Cc1ccc(-c2ccccc2-c2nnn[nH]2)cc1` [Example 60], at A II receptor, the “Radioreceptor Assay 1 × 10^−6M” value is recorded as 81 and the “Radioreceptor Assay 1 × 10^−7M” value is recorded as 44. Besides, the “Pressor Response to A II (p.o.) 3 mg/kg” value in assay [1] is on record as “+++ (+++ ≧ 70%)”.
For the compound `CCOc1nc2cccc(C(=O)OCOC(=O)C3CCCC3)c2n1Cc1ccc(-c2ccccc2-c2nnn[nH]2)cc1` [Example 61], at A II receptor, the inhibition at 1 µM is 89% and the inhibition at 0.1 µM worked out at 54%. For the same compound, the inhibition in vivo at 3 mg/kg in assay [1] is at least 70%.
